Assay results: patent US20230013402A1, “REGENERATING FUNCTIONS AND PHENOTYPES OF CONNECTIVE TISSUE THROUGH NPAS2 SUPPRESSION” (The Regents of the University of California, priority 2019, published 2023)
Where a name gives a salt, the structure may show the parent alone. Read-outs that look alike come from different tables or passages of the source.

Legend:
[1] = tested on: Npas2-LacZ reporter gene (Npas2 expression); assay: High throughput screening of FDA Approved Drug Library for Npas2-LacZ reporter expression; format: cell-based, mouse
Source text: (§1) Mouse MSC carrying Npas2-LacZ reporter gene, as described by Hassan N, et al., PLoS One. 2017; 12(8):e0183359, which is incorporated by reference herein in its entirety, was immortalized using SV40 in order to accommodate a large-scale HTS. […] This cell system was used to screen FDA Approved Drug Library (1120 compounds). The same library was also screened for cell viability by Calcein AM Hoechst 33342 staining Cell migration assays using the Oris™ Pro Cell Migration Assay plate, as described by Joy M E et al., PloS one. 2014; 9(2):e88350, which is incorporated by reference herein in its entirety, was used for a high-throughput migration assay using human skin fibroblasts
(§2) The combined Z score was used to identify hit compounds (Table 1).

[2] = tested on: human skin fibroblasts; assay: High-throughput cell migration assay (Oris Pro Cell Migration Assay plate) / standardized viability; format: cell-based
Source text: as §1, §2

[3] = tested on: Npas2-LacZ expression; assay: High throughput screening of LOPAC1280 for Npas2-LacZ expression of mouse BMSC; format: cell-based; parameters: concentration or dose not given beside the values; conditions: Activity against negative controls in LOPAC screening; Npas2 downregulation
Source text: FIGS. 13A-13C show an unbiased chemical genetics analysis was used to determine the molecular mechanisms underlying implant osseointegration. […] Hit compounds were identified as z-score >2.5 or <−2.5.
Femur BMSC derived from Npas2−/− mouse was previously characterized for the expression of LacZ, as described by Hassan, N., et al., (2017) Titanium biomaterials with complex surfaces induced aberrant peripheral circadian rhythms in bone marrow mesenchymal stromal cells. PLoS One 12, e0183359, which is incorporated by reference herein in its entirety, which was used for high throughput screening of LOPAC 1280 (FIG. 13A). […] The validation study identified a total of 14 compounds (FIG. 13C), which were subjected to the chemical genetics analysis. […] By contrast, Npas2 down regulating compounds stimulate or accumulate cAMP, or induce cAMP response element binding (CREB) activation (Table 3).

[4] = tested on: fibroblasts; conditions: in vitro, compared to vehicle; cited from earlier work
[5] = Table 2, additional Npas2 expression suppressors
[6] = Table 1, HTS of FDA Drug Library
[7] = Table 1, combined Z score (product)

| Molecule | NPAS2 Z Score [1, 5] | Migration (standardized viability) Z Score [2, 5] | also measured |
| --- | --- | --- | --- |
| O=C(N/N=C/c1ccc([N+](=O)[O-])o1)c1ccc(O)cc1 [Nifuroxazide] | −3.43 | −0.402 | – |
| C[C@]12C=CC(=O)C=C1CC[C@@H]1[C@@H]2[C@@H](O)C[C@@]2(C)[C@H]1CC[C@]2(O)C(=O)CO [Prednisolone] | −2.42 | −2.31 | – |
| COc1cc2c(c(OC)c1OC)-c1ccc(OC)c(=O)cc1[C@@H](NC(C)=O)CC2 [Down03, Colchicine] | – | – | % Activity [3]: −29.7% |
| CNCC[C@@H](Oc1ccccc1C)c1ccccc1 [SAM001246626, Atomoxetine hydrochloride] | −2.6 | −0.749 | – |
| CCOC(=O)[C@H](CCc1ccccc1)N[C@@H](C)C(=O)N1CCC[C@H]1C(=O)O [MS-1501214, enalapril maleate] | −3.22 | −1.53 | – |
| CN1[C@@H]2CC[C@H]1CC(OC(=O)C(CO)c1ccccc1)C2.CN1[C@@H]2CC[C@H]1CC(OC(=O)C(CO)c1ccccc1)C2.O.O=S(=O)(O)O (stereo partly drawn) [Atropine sulfate monohydrate] | −2.04 | – | NpasZ × ViabilityZ ([1]; Table 2, combined Z score (product)): −0.3692 |
| Clc1ccc(COC(Cn2ccnc2)c2ccc(Cl)cc2Cl)cc1 (stereo not drawn) [Econazole nitrate] | −2.41 | 0.805 | – |
| CCCNC(C)C(=O)Nc1c(C)csc1C(=O)OC.Cl (stereo not drawn) [Articaine hydrochloride] | −2.02 | −0.466 | – |
| C[C@@H]1C[C@@H]([C@H](O)CC2CC(=O)NC(=O)C2)C(=O)[C@@H](C)C1 [Cycloheximide] | −3.29 | −4.91 | – |
| NCCc1c[nH]c2ccc(O)cc12 [serotonin] | – | – | Width of scratch zone [4]: reduced |
| CCc1c(C)[nH]c2c1C(=O)C(CN1CCOCC1)CC2.Cl (stereo not drawn) [Molindone hydrochloride] | – | – | NPAS2 Z Score [1, 6]: −2.1; NPAS Z × ViabilityZ [1, 7]: −2.56; Migration (standardized viability) Z Score [2, 6]: 1.22 |
| O=C(O)COC(=O)Cc1ccccc1Nc1c(Cl)cccc1Cl [Aceclofenac] | −2.16 | 0.666 | – |
| Tyloxapol | – | – | NPAS2 Z Score [1]: −2.39; NpasZ × ViabilityZ [1]: −1.367; Migration (standardized viability) Z Score [2]: 0.572 |
| CCN(CC)CCNC(=O)COc1ccc(OC)cc1.Cl [Mefexamide hydrochloride, mefexamide hydrochloride] | – | – | NPAS2 Z Score [1, 6]: −2.06; NPAS Z × ViabilityZ [1, 7]: −2.31; Migration (standardized viability) Z Score [2, 6]: 1.12 |
| C[C@H]1CCC/C=C/[C@@H]2C[C@H](O)C[C@H]2[C@H](O)/C=C/C(=O)O1 [Down01, Brefeldin A] | – | – | % Activity [3]: −45.4% |
| OCC(O)CN1CCN(c2ccccc2)CC1 (racemic) [Dropropizine (R,S)] | −2.27 | −1.21 | – |
| O=C(OC1C[C@@H]2CC3C[C@H](C1)N2CC3=O)c1c[nH]c2ccccc12 (stereo partly drawn) [Dolasetron mesilate] | −2.64 | −1.91 | – |
| CCN(CC)CCOc1ccc(Nc2ncc3cc(-c4c(Cl)cccc4Cl)c(=O)n(C)c3n2)cc1 [Down13, PD-166285 hydrate] | – | – | % Activity [3]: −35.5% |
| CCN(CC)C(=O)N1CCN(C)CC1.O=C(O)CC(O)(CC(=O)O)C(=O)O [Diethylcarbamazine citrate] | −2.36 | −2.08 | – |
| COc1cccc2c1C(=O)c1c(O)c3c(c(O)c1C2=O)C[C@@](O)(C(C)=O)C[C@@H]3O[C@H]1CC(N)[C@H](O)C(C)O1.Cl (stereo partly drawn) [Daunorubicin hydrochloride] | −2.45 | −4.56 | – |

| Molecule | NPAS2 Z Score [1, 5] | Migration (standardized viability) Z Score [2, 5] | also measured |
| --- | --- | --- | --- |
| Cl.NCc1ccc(S(N)(=O)=O)cc1 [Mafenide hydrochloride] | −2.8 | −0.188 | – |
| CC[n+]1c(/C=C/C=C2/N(C)c3ccccc3C2(C)C)sc2ccccc21.[I-] [Down06, AC-93253 iodide] | – | – | % Activity [3]: −25.1% |
| CC[C@H](C)C(=O)O[C@H]1C[C@H](O)C=C2C=C[C@H](C)[C@H](CC[C@@H](O)C[C@@H](O)CC(=O)O)[C@H]21 [Pravastatin] | −2.16 | 0.64 | – |
| S=c1nc[nH]c2nc[nH]c12 [MS-1500387, Mercaptopurine] | −2.08 | 0.577 | – |
| c1ccc2c(c1)[I+]c1ccccc1-2 [Down08, Diphenyleneiodonium chloride] | – | – | % Activity [3]: −18.6% |
| Cn1cnc2c1c(=O)[nH]c(=O)n2C [Theobromine] | −2.04 | −0.6 | – |
| CN1C(=O)OC(C)(C)C1=O [Trimethadione] | −2.74 | −0.105 | – |
| Cc1c(NC(=O)c2cccnc2)c(=O)n(-c2ccccc2)n1C [Nifenazone] | −2.41 | −0.243 | – |
| C/C=C(/C)C(=O)O[C@H]1C(C)=C2[C@H]([C@@H]1OC(=O)CCCCCCC)[C@@](C)(OC(C)=O)C[C@H](OC(=O)CCC)[C@@]1(O)[C@H]2OC(=O)[C@@]1(C)O [Down12, THAPSIGARGIN] | – | – | % Activity [3]: −43.5% |
| CC[C@@]1([C@@H]2OC(C3O[C@@](O)(CO)[C@H](C)C[C@@H]3C)C[C@@H]2C)CC[C@H]([C@]2(C)CC[C@@]3(C[C@H](O)[C@@H](C)C([C@@H](C)[C@@H](OC)[C@H](C)C(=O)O)O3)O2)O1 (stereo partly drawn) [Monensin sodium salt] | −4.34 | −8.13 | – |
| NC(=O)OCC(O)COc1ccc(Cl)cc1 (stereo not drawn) [Chlorphensin carbamate] | −2.36 | −0.157 | – |
| Cn1c(=O)c(-c2c(Cl)cccc2Cl)cc2cnc(Nc3ccc(N4CCOCC4)cc3)nc21 [Down14, PD-173952] | – | – | % Activity [3]: −33.0% |
| O=C(O)c1cccnc1Nc1cccc(C(F)(F)F)c1 [Niflumic Acid, Niflumic acid] | – | – | NPAS2 Z Score [1, 6]: −1.99; NPAS Z × ViabilityZ [1, 7]: −3.56; Migration (standardized viability) Z Score [2, 6]: 1.79 |
| C[C@]12CC[C@@H]3c4ccc(O)cc4CC[C@H]3[C@@H]1CCC2=O [Estrone] | −2.01 | −2.56 | – |
| COc1cc([C@@H]2c3cc4c(cc3[C@H](O)[C@H]3COC(=O)[C@H]23)OCO4)cc(OC)c1OC [Down10, Podophyllotoxin] | – | – | % Activity [3]: −15.6% |
| CC(=O)OC1CN2CCC1CC2.Cl (stereo not drawn) [Aceclidine Hydrochloride] | −2.2 | 0.198 | – |
| CCCCCC[C@H]1C(=O)O[C@H](C)[C@H](NC(=O)c2cccc(NC=O)c2O)C(=O)O[C@@H](C)[C@@H]1OC(=O)CC(C)C (stereo in doubt) [Antimycin A] | – | – | NPAS2 Z Score [1, 6]: −2.72; NPAS Z × ViabilityZ [1, 7]: −5.79; Migration (standardized viability) Z Score [2, 6]: 2.13 |
| O=[N+]([O-])O[C@@H]1CO[C@H]2[C@@H]1OC[C@@H]2O [Isosorbide mononitrate] | −2.01 | 0.647 | – |
| CN(Cc1ccc(C(C)(C)C)cc1)Cc1cccc2ccccc12.Cl [Butenafine Hydrochloride] | −2.02 | 0.239 | – |
| CC(C)NC[C@H](O)COc1ccc(CC(N)=O)cc1 [(S)-(-)-Atenolol, (S)-(−)-Atenolol] | – | – | NPAS2 Z Score [1]: −2 |
